# From patent US8735375B2, “Therapeutic compositions” (Leo Laboratories Limited, priority 2005, dated 2014)
# Key:
# [1] = Preliminary in vitro diffusion study (Franz cell); format: in vitro ADME; settings: human stratum corneum, at detectable levels
# Text: Once the stability of I3A in the excipients and penetration enhancers had been established, a preliminary in vitro diffusion experiment could be conducted to determine the permeation of stratum corneum by I3A from some simple formulations. The Franz diffusion cell is designed to mimic the physiological and anatomical conditions of skin in situ. It is an air/fluid phase static cell, which comprises a donor compartment, receptor compartment and a side arm sampling port (see FIG. 1). Surgically excised skin is positioned between the two halves with the stratum corneum facing the donor compartment to allow for drug application.
# An initial in vitro diffusion experiment using a simple formulation of I3A in miglyol was performed. […] This formulation was used in later diffusion cell experiments as a negative control and also served to confirm the integrity of the stratum corneum, as if there is no diffusion of drug from this formulation, it can be assumed that the stratum corneum remains intact.
# A formulation of I3A was prepared in phosphate buffer (pH 4.5) with β-cyclodextrins (Captisol®) added with a view to increasing the solubility and stability of I3A, and the flux of the drug. A second formulation in DMSO, a known penetration enhancer, was also prepared for comparative purposes, as well as a formulation in miglyol, which served as a negative control. […]
# [2] = Stability study of I3A in solvents/excipients at room temperature (HPLC ratio of isoform 'b' to 'a' and 'c'); format: physicochemical
# Method: A stability study of I3A in the following solvent/excipients/excipient combinations was performed over 14 days (except where otherwise stated) at room temperature:
# A 0.5 mg/ml stock solution of I3A in acetonitrile was prepared. Aliquots of 1.0 ml were transferred to individual glass sample vials by a burette; the solutions were dried by air jet and then 1.0 g of the respective solvent/excipient/excipient combination was added to the vials. On Day 0, Day 5 and Day 14, aliquots of the stability samples were removed for HPLC analysis using the chromatographic conditions described under “Stability in DMSO”, below. Stability was expressed as the ratio of peak ‘b’ to peak ‘a’ (and peak ‘c’ if present), with a high ratio indicating stability in a particular excipient.
# The chromatographic conditions employed for the excipients stability study were as follows:
# It is assumed that for an excipient in which I3A is not stable, other like excipients will not be suitable.
# Stability of I3A in DMSO = format: physicochemical; settings: 10 days
# Method: I3A was investigated for stability in DMSO at room temperature and at 37° C. over a 10 day time period. A control sample of I3A in acetonitrile was kept under the same conditions as the test sample. The samples were analysed by HPLC at the start of the experiment (Day 0), after 48 hours (Day 2) and again after 10 days.
# The chromatographic conditions employed were as follows: […]
# [3] = Preliminary stability of I3A in fractionated coconut oil; format: physicochemical
# Method: Approximately 10 mg of […] was accurately weighed into a 28 ml glass vial and added to approximately 200 mg of benzyl alcohol (exact weight noted), which had previously been filtered through a 0.22 μm MILLEX-GV filter. This mixture was periodically vortexed for approximately 2 h until the […] had dissolved in the benzyl alcohol. […] Aliquots of each formulation (placebo or active) were dispensed into 2 ml screw cap amber glass vials (borosilicate glass), sealed and stored at two storage conditions namely 2-8° C. and 25±2° C. […]
# [4] = I3A in Mineral oil, room temperature, 14 days
smiles,measurement,setting,value
"C/C=C(/C)C(=O)O[C@H]1C(C)=C[C@]23C(=O)[C@H](C=C(CO)[C@@H](O)[C@]12O)[C@H]1[C@@H](C[C@H]3C)C1(C)C [Formulation I3A, ingenol-3-angelate]",diffusion of I3A across the stratum corneum,[1],diffuses across the stratum corneum
same,Stable?,"[2]; I3A in 2-Hydroxypropyl-β-cyclodextrin (Cavasol)/PO4 pH 4.5, room temperature, 14 days",√
same,Stable?,"[2]; I3A in Acetone, room temperature, 14 days",stable and √
same,Stable?,"[2]; I3A in Acetonitrile, room temperature, 14 days",stable and √
same,Stable?,"[2]; I3A in Ammonium buffer pH 4.5, room temperature",stable and √
same,Comments,"[2]; I3A in Captisol/H2O, room temperature, 7 days study (comment continues: present)",Isoforms ‘a’ and ‘c’
same,Comments,"[2]; I3A in Cavasol/H2O, room temperature, 14 days",Large peak for isoform ‘c’
same,Comments,"[2]; I3A in Cavasol/PO4 pH 4.5, room temperature, 14 days",Some precipitation of I3A
same,Stable?,"[2]; I3A in DMSO, room temperature, 10 days study",stable and √
same,Comments,"[2]; I3A in Methanol, room temperature, 14 days",Isoform ‘a’ forms
same,Comments,"[2]; I3A in Methanol/water (70/30), room temperature, 14 days",Isoform ‘a’ then ‘c’ form
same,Stable?,"[2]; I3A in Miglyol 810, room temperature, 14 days",√
same,Comments,[2]; [4],Precipitation of I3A
same,Stable?,[2]; [4],√
same,Comments,"[2]; I3A in Oleic acid, room temperature, 14 days (isoform 'a' present, shoulder on 'b', 'c' forming)",chromatogram. isoform ‘a’
same,Stable?,"[2]; I3A in Phosphate buffer pH 4.5, room temperature, 14 days",stable and √
same,Comments,"[2]; I3A in Phosphate buffer pH 5.5, room temperature, 14 days",Isoform ‘a’ forms
same,Comments,"[2]; I3A in Phosphate buffer pH 6.5, room temperature, 14 days",Isoform ‘a’ then ‘c’ form
same,Stable?,"[2]; I3A in Polyethylene glycol, room temperature, 14 days",√
same,Comments,"[2]; I3A in Propylene glycol, room temperature, 14 days (comment continues: isoforms)",Formation of ‘a’ and ‘c’
same,Comments,"[2]; I3A in Sodium hyaluronate/H2O, room temperature, 2 days study",Isoform ‘a’ present
same,Stable?,"[2]; I3A in Sodium hyaluronate/PO4 pH 4.5, room temperature, 2 days study",√
same,Stable?,"[2]; I3A in Tween 80/Span 80/H2O, room temperature, 14 days",√
same,Stable?,"[2]; I3A in Tween 80/Span 80/PO4 pH 4.5, room temperature, 14 days",√
same,Comments,"[2]; I3A in Water, room temperature, 14 days",Isoform ‘a’ then ‘c’ form
same,Stable?,"[2]; I3A in β-cyclodextrin sulphobutyl ether (Captisol)/PO4 pH 4.5, room temperature, 7 days study",√
same,stability,Stability of I3A in DMSO; 37° C.,stable
same,stability,Stability of I3A in DMSO; room temperature,stable
same,% I3A ‘a’ (isoform ‘a’ as a percentage of isoform ‘a’ and I3A ‘b’),"[3]; 0.1% w/w I3A in fractionated coconut oil/2% benzyl alcohol, Time 0",1.90%
same,% I3A ‘a’,[3]; Fresh sample I3A in Acetonitrile at time 43 days,2.14%
same,% I3A ‘a’ (isoform ‘a’ as a percentage of isoform ‘a’ and I3A ‘b’),[3]; Fresh sample I3A in Acetonitrile at time zero,2.50%
same,% I3A ‘a’,"[3]; I3A in fractionated coconut oil formulation, Time 5 days (2-8° C.)",1.86%
same,% I3A ‘a’,"[3]; I3A in fractionated coconut oil formulation, Time 5 days (25° C.)",1.97%
same,% I3A ‘a’,"[3]; I3A in fractionated coconut oil formulation, Time 20 days (2-8° C.)",1.94%
same,% I3A ‘a’,"[3]; I3A in fractionated coconut oil formulation, Time 20 days (25° C.)",1.93%
same,% I3A ‘a’,"[3]; I3A in fractionated coconut oil formulation, Time 28 days (2-8° C.)",1.93%
same,% I3A ‘a’,"[3]; I3A in fractionated coconut oil formulation, Time 28 days (25° C.)",1.94%
same,% I3A ‘a’,"[3]; I3A in fractionated coconut oil formulation, Time 43 days (2-8° C.)",1.95%
same,% I3A ‘a’,"[3]; I3A in fractionated coconut oil formulation, Time 43 days (25° C.)",1.91%
same,change in percentage of isoform ‘a’ during storage,"[3]; I3A in fractionated coconut oil, 2-8 and 25° C., 43 days",no increase in the percentage of isoform ‘a’
